Among the test systems are XF498; M19-MEL; RXF 631; DMS-114; MDA-MB-231; PC-3; T47D; MDA-MB-435.
Holding throughout (assay): DTP human tumour cell line panel, 48 h

The structures appear in SMILES notation.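 Step 1: Grow cells in 96-well plates. Step 2: Expose to compound for 48 hours at 5 concentrations. Step 3: Interpolate endpoints linearly; if unreached, use highest concentration. Here, GI50 denotes the concentration required for 50% inhibition of growth.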 Active and inactive are the calls of the source. Rule as the data show it: active = GI50 up to about 1.1 µM and inactive = higher. Bounds are passed on as bounds.

For orientation: GI50 means the concentration giving 50% growth inhibition. For `O=C1N(C2CCCCC2)CC12CCCCC2`, the GI50 in the assay on XF498, in the assay with M19-MEL, with RXF 631 and in the assay on DMS-114 was > 100 µM (inactive) throughout.
As to `C(=C\c1csnn1)/c1cccnc1`, the GI50 with XF498 is > 100 µM (inactive); in the assay with M19-MEL, > 100 µM (inactive); in the assay with RXF 631, 81.7 µM (inactive); in the assay on DMS-114 it was > 100 µM (inactive).
Consider `C[C@]12CC[C@H](OC3CCCCO3)CC1=CC[C@@H]1C2CC[C@]2(C)/C(=N/OCCC#N)CCC12` (stereo partly drawn), for which the GI50 is 4.62 µM (inactive) with XF498, > 100 µM (inactive) with M19-MEL, 33.6 µM (inactive) in the assay with RXF 631 and 4.76 µM (inactive) in the assay on DMS-114.
With `CN(C)CC1CCCC1=O` (stereo not drawn), the GI50 with XF498 is 0.687 µM (active); with M19-MEL, 0.857 µM (active); in the assay with RXF 631 it was 0.138 µM (active); in the assay with MDA-MB-231, 2.64 µM (inactive); in the assay with DMS-114, 1.08 µM (active); in the assay on PC-3, 8.09 µM (inactive). For the same compound, the GI50 with T47D was 3.65 µM (inactive); in the assay on MDA-MB-435 it was 4.39 µM (inactive).
Take `COc1ccc(C2C3C(=O)C=CC(=O)C3[C@@H]2C)cc1OC` (stereo partly drawn): the GI50 with XF498 was 56.1 µM (inactive); with M19-MEL, > 100 µM (inactive); with RXF 631, > 100 µM (inactive); with DMS-114, 56.5 µM (inactive).
As for `C=C1C(=O)O[C@@H]2C[C@@]3(C)[C@H](O)CCC(=C)[C@@H]3C[C@H]12` [ASPERILIN], the GI50 in the assay on XF498 is 2.59 µM (inactive); in the assay with M19-MEL it was 6.68 µM (inactive); in the assay with RXF 631, 13.6 µM (inactive); in the assay on DMS-114, 14.4 µM (inactive).

These data come from ChEMBL document CHEMBL1201862, “PubChem BioAssay data set” (2004).
